The source of these data is patent publication US20060084627A1, “Synergistic interaction of abacavir and alovudine” (Medivir AB, priority 2002, published 2006).

What is called inhibition is the share of the control response that was lost under treatment. Low values mean a response near the control, high ones a response far below the control.

One data set concerns multiresistant HIV. The note with it: patients, alovudine 7.5 mg qd add-on for four weeks. The procedure:
A phase IIa trial was performed with 15 patients failing their current NRTI-containing regimens. Each patient had HIV RNA>1000 cp/ml, with at least 2 mutations in the viral RT induced by previous viral therapy, as established by genotypic assay.
The patents were administered qd 7.5 mg alovudine in a conventional carrier in addition to their current regimen for four weeks. The current regimes included various permutations of 3-5 HIV antivirals selected from 3TC, ddI, D4T, nevirapine, DMP, ritonavir, kaletra, saquinavir, amprenavir and indinavir, administered in their conventional dosage forms and regimens. Antiviral load evaluation was performed weekly and then four weeks after discontinuation of alovudine.
As this clinical trial was performed as an add-on therapy to the patients pre-existing regime, it will be appreciated that the alovudine qd was administered in a separate dosage form to the abacavir (typically bd) and other antvirals (typically administered […]).

A further data set concerns HIV-1, IIIb. In words: microbe, parasite or virus in culture. It is filed as cell-based. The conditions noted are these: Human immunodeficiency virus 1, IIIB, MT4; alovudine alone at 0.003 uM, FIG. 3.

Description for HIV-1, IIIb: The antiviral effects of MIV-310 in combination with other NRTIs on HIV-1 replication in MT4 cells were examined by the median effect method (Chao and Talalay 1983). The assay was performed in microtiter plates with each well containing 10^5 cells and 20-50 tissue culture infective doses of HIV-1, IIIb. Each drug alone and a mixture of the drugs in a constant ratio were serially diluted in 2-fold steps and added to the wells in quadruplicates. The constant ratio is selected to reflect the relative potency of the drugs. […] The anti-viral effect was measured day 5 using the XTT calorimetric method.
A combination index (CI) less than 1 indicates synergism, CI equal to zero indicates addition and a CI greater than 1 indicates antagonism. Once again, the combinations have been tested at molar ratios reflecting their relative ED50s in cell culture.

For the compound `Cc1cn([C@H]2C[C@H](F)[C@@H](CO)O2)c(=O)[nH]c1=O` [alovudine, 3′-deoxy-3′-fluorothymidine], in the data set with multiresistant HIV, the serious adverse events entry is listed as “no serious adverse events”, the tolerability result is given as “generally well tolerated” and the “transient mean increase in CD4 counts” value is reported as “+52 counts/mm^3”. Besides, the inhibition at 0.003 µM in the data set on HIV-1, IIIb was determined as 27%.
